Experimental data from patent US9822131B2, “Certain chemical entities, compositions and methods” (Intellikine LLC, priority 2008, dated 2017).

The molecules below were run on Balb/c splenic B cells (assay: B cell activation and proliferation assay (Alamar Blue)). Settings: Mus musculus, read-out: B cell proliferation EC50.
Assay type: cell-based

Row | Compound | EC50
1 | Cc1cccc2cc(Cn3nc(I)c4c(N)ncnc43)n(C)c(=O)c12 [Compound 107] | < 1 µM
2 | Cc1cccc2cc(Cn3nc(-c4cc(O)cc(F)c4)c4c(N)ncnc43)n(-c3ccccc3OCCN3CCOCC3)c(=O)c12 [Compound 108] | < 0.1 µM
3 | Cc1cccc2cc(Cn3nc(I)c4c(N)ncnc43)n(C3CCC3)c(=O)c12 [Compound 105] | < 1 µM
4 | Cc1ccccc1-n1c(Cn2nc(Br)c3c(N)ncnc32)cc2cccc(C)c2c1=O [Compound 19] | < 1 µM
5 | Cc1cccc2cc(Cn3nc(I)c4c(N)ncnc43)n(C3CC3)c(=O)c12 [Compound 86] | < 1 µM
6 | CCc1ccccc1-n1c(Cn2nc(-c3cc(O)cc(F)c3)c3c(N)ncnc32)cc2cccc(C)c2c1=O [Compound 89] | < 0.1 µM
7 | Cc1cccc2cc(Cn3nc(-c4ccc(Cl)c(O)c4)c4c(N)ncnc43)n(C(C)C)c(=O)c12 [Compound 123] | < 0.1 µM
8 | Cc1ccccc1-n1c(Cn2nc(-c3ccc(F)c(O)c3)c3c(N)ncnc32)cc2cccc(C)c2c1=O [Compound 12] | < 0.1 µM
9 | CC(=O)Nc1nc2ccc(-c3nn(Cc4cc5cccc(F)c5c(=O)n4C(C)C)c4ncnc(N)c34)cc2s1 [Compound 158] | < 0.1 µM
10 | Cc1ccccc1-n1c(Cn2nc(C#C[C@@H](C)O)c3c(N)ncnc32)cc2ccccc2c1=O [Compound 32] | < 1 µM
11 | Cc1cccc2cc(Cn3nc(-c4cn[nH]c4)c4c(N)ncnc43)n(-c3ccccc3F)c(=O)c12 [Compound 161] | < 1 µM
12 | Cc1cccnc1-n1c(Cn2nc(-c3ccc(F)c(O)c3)c3c(N)ncnc32)cc2cccc(C)c2c1=O [Compound 68] | < 0.1 µM
13 | Cc1ccccc1-n1c(Cn2nc(/C=C3/SC(=O)NC3=O)c3c(N)ncnc32)cc2cccc(C)c2c1=O [Compound 173] | < 0.1 µM
14 | CC(=O)Nc1nc2ccc(-c3nn(Cc4cc5cccc(C)c5c(=O)n4C4CCC4)c4ncnc(N)c34)cc2s1 [Compound 159] | < 0.1 µM
15 | Cc1ccccc1-n1c(Cn2nc(-c3cnc4[nH]ccc4c3)c3c(N)ncnc32)cc2cccc(C)c2c1=O [Compound 48] | < 0.1 µM
16 | Cc1cccc2cc(Cn3nc(-c4cc(O)cc(F)c4)c4c(N)ncnc43)n(C3CCCCC3)c(=O)c12 [Compound 110] | < 1 µM
17 | Cc1cccc2cc(Cn3nc(-c4cccc(O)c4)c4c(N)ncnc43)n(C(C)C)c(=O)c12 [Compound 62] | < 0.1 µM
18 | Cc1cccc2cc(Cn3nc(-c4cc(O)cc(F)c4)c4c(N)ncnc43)n(C3CCOCC3)c(=O)c12 [Compound 128] | < 0.1 µM
19 | CCc1ccccc1-n1c(Cn2nc(-c3cccc(O)c3)c3c(N)ncnc32)cc2cccc(C)c2c1=O [Compound 88] | < 0.1 µM
20 | Cc1cccc2cc(Cn3nc(-c4cccc(O)c4)c4c(N)ncnc43)n(-c3ccccc3O)c(=O)c12 [Compound 81] | < 0.1 µM
21 | Cc1cccc2cc(Cn3nc(I)c4c(N)ncnc43)n(-c3ccccc3C(C)C)c(=O)c12 [Compound 75] | < 0.1 µM
22 | Cc1cccnc1-n1c(Cn2nc(-c3ccc(Cl)c(O)c3)c3c(N)ncnc32)cc2cccc(C)c2c1=O [Compound 72] | < 0.1 µM
23 | Cc1cccc2cc(Cn3nc(-c4ccc(O)c(Cl)c4)c4c(N)ncnc43)n(-c3ccccc3F)c(=O)c12 [Compound 26] | < 10 µM
24 | Cc1cccc2cc(Cn3nc(-c4cc(O)cc(F)c4)c4c(N)ncnc43)n(C3CCC3)c(=O)c12 [Compound 115] | < 0.1 µM
25 | Cc1cccc2cc(Cn3nc(-c4ccc(Cl)c(O)c4)c4c(N)ncnc43)n(-c3ccccc3F)c(=O)c12 [Compound 24] | < 1 µM

Row | Compound | EC50
26 | CCn1c(Cn2nc(-c3cccc(O)c3)c3c(N)ncnc32)cc2cccc(C)c2c1=O [Compound 126] | < 0.1 µM
27 | Cc1cccc2cc(Cn3nc(-c4cc(O)cc(F)c4)c4c(N)ncnc43)n(C)c(=O)c12 [Compound 125] | < 0.1 µM
28 | CCn1c(Cn2nc(-c3ccc4nc(NC(C)=O)sc4c3)c3c(N)ncnc32)cc2cccc(C)c2c1=O [Compound 176] | < 0.1 µM
29 | Cc1cccc2cc(Cn3nc(I)c4c(N)ncnc43)n(-c3ccccc3OCCN3CCOCC3)c(=O)c12 [Compound 103] | < 1 µM
30 | Cc1ccccc1-n1c(Cn2nc(-c3ccc4nc(N)ncc4c3)c3c(N)ncnc32)cc2cccc(C)c2c1=O [Compound 150] | < 0.1 µM
31 | CC(=O)Nc1nc2ccc(-c3nn(Cc4cc5cccc(Cl)c5c(=O)n4C4CC4)c4ncnc(N)c34)cc2s1 [Compound 156] | < 0.1 µM
32 | Cc1ccccc1-n1c(Cn2nc(-c3cc(O)cc(F)c3)c3c(N)ncnc32)cc2cccc(F)c2c1=O [Compound 55] | < 0.1 µM
33 | Cc1ccccc1-n1c(Cn2nc(Cl)c3c(N)ncnc32)cc2cccc(C)c2c1=O [Compound 20] | < 1 µM
34 | Cc1cccc2cc(Cn3nc(-c4cccc(O)c4)c4c(N)ncnc43)n(-c3ccccc3Cl)c(=O)c12 [Compound 96] | < 0.1 µM
35 | COc1cc(-c2nn(Cc3cc4cccc(C)c4c(=O)n3-c3ccccc3C)c3ncnc(N)c23)ccc1Cl [Compound 21] | < 1 µM
36 | Cc1ccncc1-n1c(Cn2nc(I)c3c(N)ncnc32)cc2cccc(C)c2c1=O [Compound 78] | < 1 µM
37 | Cc1cccc2cc(Cn3nc(Cl)c4c(N)ncnc43)n(-c3ccccc3F)c(=O)c12 [Compound 34] | < 1 µM
38 | Cc1ccccc1-n1c(Cn2nc(-c3ccc(Cl)c(O)c3)c3c(N)ncnc32)cc2cccc(C)c2c1=O [Compound 23] | < 0.1 µM
39 | CC(=O)Nc1nc2ccc(-c3nn(Cc4cc5cccc(C)c5c(=O)n4C4CC4)c4ncnc(N)c34)cc2s1 [Compound 155] | < 0.1 µM
40 | Cc1ccccc1-n1c(Cn2nc(-c3cccc(F)c3)c3c(N)ncnc32)cc2cccc(C)c2c1=O [Compound 41] | < 1 µM
41 | Cc1cccc2cc(Cn3nc(C#C[C@@H](C)O)c4c(N)ncnc43)n(-c3ccccc3F)c(=O)c12 [Compound 28] | < 1 µM
42 | Cc1cccc2cc(Cn3nc(C#C[C@@H](C)O)c4c(N)ncnc43)n(-c3ccccc3C(C)C)c(=O)c12 [Compound 83] | < 0.1 µM
43 | Cc1cccc2cc(Cn3nc(-c4cccc(O)c4)c4c(N)ncnc43)n(-c3ccccc3OCCN3CCOCC3)c(=O)c12 [Compound 109] | < 0.1 µM
44 | COc1ccccc1-n1c(Cn2nc(I)c3c(N)ncnc32)cc2cccc(C)c2c1=O [Compound 70] | < 1 µM
45 | Cc1ccccc1-n1c(Cn2nc(C#C[C@@H](C)O)c3c(N)ncnc32)cc2cccc(F)c2c1=O [Compound 43] | < 10 µM
46 | Cc1cccc2cc(Cn3nc(I)c4c(N)ncnc43)n(C3CCCC3)c(=O)c12 [Compound 57] | < 10 µM
47 | Cc1cccc2cc(Cn3nc(-c4cccc(Cl)c4)c4c(N)ncnc43)n(-c3ccccc3F)c(=O)c12 [Compound 38] | > 10 µM
48 | Cc1ccccc1-n1c(Cn2nc(/C=C/C(N)=O)c3c(N)ncnc32)cc2cccc(C)c2c1=O [Compound 174] | < 0.1 µM
49 | Cc1cccc2cc(Cn3nc(-c4cc(O)cc(F)c4)c4c(N)ncnc43)n(C3CCCC3)c(=O)c12 [Compound 63] | < 0.1 µM
50 | Cc1ccccc1-n1c(Cn2nc(-c3ccc4cc[nH]c4c3)c3c(N)ncnc32)cc2cccc(C)c2c1=O [Compound 50] | < 1 µM

Row | Compound | EC50
51 | Cc1cccc2cc(Cn3nc(C#CC4CC4)c4c(N)ncnc43)n(-c3ccccc3F)c(=O)c12 [Compound 4] | < 1 µM
52 | CC(C)n1c(Cn2nc(-c3cc(O)cc(F)c3)c3c(N)ncnc32)cc2ccccc2c1=O [Compound 136] | < 0.1 µM
53 | Cc1cccc2cc(Cn3nc(-c4ccc(F)c(O)c4)c4c(N)ncnc43)n(C(C)C)c(=O)c12 [Compound 67] | < 0.1 µM
54 | Cc1ccccc1-n1c(Cn2nc(-c3cn[nH]c3)c3c(N)ncnc32)cc2cccc(C)c2c1=O [Compound 160] | < 0.1 µM
55 | CC(=O)Nc1nc2ccc(-c3nn(Cc4cc5cccc(C)c5c(=O)n4C)c4ncnc(N)c34)cc2s1 [Compound 153] | < 0.1 µM
56 | Cc1ccccc1-n1c(Cn2nc(C#N)c3c(N)ncnc32)cc2cccc(C)c2c1=O [Compound 170] | < 0.1 µM
57 | Cc1cccc2cc(C(C)Nc3ncnc4[nH]cnc34)n(-c3ccccc3F)c(=O)c12 (centres unmarked) [Compound 167] | < 0.1 µM
58 | Cc1cccc2cc(Cn3nc(C#C[C@@H](C)O)c4c(N)ncnc43)n(-c3ccccc3O)c(=O)c12 [Compound 91] | < 1 µM
59 | COc1cccc(-c2nn(Cc3cc4cccc(C)c4c(=O)n3-c3ccccc3C)c3ncnc(N)c23)c1 [Compound 106] | < 1 µM
60 | Cc1ccccc1-n1c(Cn2nc(-c3ccc(F)cc3)c3c(N)ncnc32)cc2cccc(C)c2c1=O [Compound 27] | < 10 µM
61 | COc1ccc(-c2nn(Cc3cc4cccc(C)c4c(=O)n3-c3ccccc3F)c3ncnc(N)c23)cc1OC [Compound 47] | < 1 µM
62 | CC(C)n1c(Cn2nc(-c3cc(O)cc(F)c3)c3c(N)ncnc32)cc2cccc(Cl)c2c1=O [Compound 138] | < 0.1 µM
63 | CC(C)n1c(Cn2nc(-c3cccc(O)c3)c3c(N)ncnc32)cc2cccc(Cl)c2c1=O [Compound 137] | < 0.1 µM
64 | Cc1cccc2cc(Cn3nc(-c4cccc(O)c4)c4c(N)ncnc43)n(C3CCCCC3)c(=O)c12 [Compound 111] | < 1 µM
65 | Cc1cccc2cc(Cn3nc(-c4ccc(F)c(O)c4)c4c(N)ncnc43)n(-c3ccccc3F)c(=O)c12 [Compound 9] | < 1 µM
66 | Nc1ncnc2c1c(I)nn2Cc1cc2cccc(Cl)c2c(=O)n1C1CC1 [Compound 139] | < 0.1 µM
67 | Cc1cccc2cc(Cn3nc(-c4cc(O)cc(F)c4)c4c(N)ncnc43)n(-c3ccccc3O)c(=O)c12 [Compound 90] | < 0.1 µM
68 | Cc1ccccc1-n1c(Cn2nc(-c3ccc4nc(N)sc4c3)c3c(N)ncnc32)cc2cccc(C)c2c1=O [Compound 145] | < 1 µM
69 | Cc1cccc2cc(Cn3nc(-c4cc(O)cc(F)c4)c4c(N)ncnc43)n(-c3ccccc3)c(=O)c12 [Compound 147] | < 0.1 µM
70 | Cc1ccccc1-n1c(Cn2nc(-c3cccc(Cl)c3)c3c(N)ncnc32)cc2cccc(C)c2c1=O [Compound 39] | < 10 µM
71 | Cc1ccccc1-n1c(Cn2nc(C#CC3CC3)c3c(N)ncnc32)cc2cccc(C)c2c1=O [Compound 14] | < 1 µM
72 | Cc1cccnc1-n1c(Cn2nc(Br)c3c(N)ncnc32)cc2cccc(C)c2c1=O [Compound 17] | < 0.1 µM
73 | Nc1ncnc2c1c(-c1cccc(O)c1)nn2Cc1cc2cccc(Cl)c2c(=O)n1C1CC1 [Compound 141] | < 0.1 µM
74 | Cc1cccnc1-n1c(Cn2nc(-c3cccc(O)c3)c3c(N)ncnc32)cc2cccc(C)c2c1=O [Compound 73] | < 0.1 µM
